# Measurements taken from BindingDB's records for doi:10.1016/j.bmcl.2017.11.013 (Csir-Indian Institute of Integrative Medicine, 2017).
# Legend:
# [1] = Inhibition of human CYP1B1 expressed in MDA-MB-468 cells assessed as potentiation of cisplatin-induced cytotoxicity by measuring cisplatin EC50 at 20 uM (Rvb = 6.70+/- 0.7 uM)
# [2] = Inhibition of human CYP1A1 transfected in HEK293 cells assessed as protection against CYP1A1 mediated B[a]P toxicity by measuring B[a]P EC50 at 20 uM by MTT assay (Rvb =1.2+/- 0.3 uM)
# [3] = Inhibition of human CYP1B1 expressed in MDA-MB-468 cells assessed as potentiation of cisplatin-induced cytotoxicity by measuring cisplatin EC50 at 6.6 uM (Rvb = 6.70+/- 0.7 uM)
Structure (SMILES),EC50 [1] [µM],EC50 [2] [µM],EC50 [3] [µM]
O=c1cc(-c2ccccc2)oc2c1ccc1ccccc12,5.1,–,–
CC(C)=CCc1cc(C2CC(=O)c3ccc(O)c(CC=C(C)C)c3O2)ccc1O (stereo not given),5.2,2.3,–
"O=c1c(O)c(-c2ccc(O)c(O)c2)oc2cc(O)cc(O)c12 [2-(3,4-dihydroxyphenyl)-3,5,7-trihydroxy-chromone;hydrate]",–,8.8,1.1
